Measured values: patent US20210337789A1, “Derivatives of m-Guaiacol, Their Preparation and Their Uses” (Universite de Caen Normandie, priority 2018, published 2021)

How the values were obtained:
[1] = system: Micrococcus luteus reference strain; assay: Bacterial growth (optical density at 600 nm) on Micrococcus luteus reference strain; format: cell-based; design: key: 0 = no effect, 1 = pure only, 2 = several concentrations, 3 = strong at all; conditions: in DMSO diluted in PBS, compared with triclosan
Description: (§1) The bacterial growth is evaluated by measuring the optical density (DO) at 600 nm using NanoDrop.
(§2) This ratio permits a classification of the molecules in 4 effect levels: • 0=no effect observed; • 1=effect observed only when the molecule is tested pure; • 2=effect observed at several concentrations, but which gradually decreases the dilutions; • 3=strong effect observed at each concentration of molecule tested.
The molecules are put in a solution in DMSO and diluted in PBS.

Staphylococcus aureus = assay: Bacterial growth screening on wild-type phenotype strain, S. aureus; format: cell-based
Description: as §1, §2
(§3) A screening of molecules of the invention on several wild-type phenotype strains has been carried out.
(§4) The strains initially selected are: • Gram+: Streptococcus equi subsp zooepidemicus and Staphylococcus aureus • Gram−: Escherichia coli, Klebsiella pneumoniae and Stenotrophomonas maltophila.

Escherichia coli = assay: Bacterial growth screening on wild-type phenotype strain, E. coli; format: cell-based
Description: as §1, §2, §3, §4

Klebsiella pneumoniae = assay: Bacterial growth screening on wild-type phenotype strain, K. pneumoniae; format: cell-based
Description: as §1, §2, §3, §4

[2] = system: Stenotrophomonas maltophila; assay: Bacterial growth screening on wild-type phenotype strain, S. maltophila; format: cell-based
Description: as §1, §2, §3, §4

[3] = system: E. coli strains presenting high levels of resistance; assay: Bacterial growth on E. coli strains presenting high levels of resistance; format: cell-based, Escherichia coli; design: key to Effects (0 < 1 < 2 < 3): 0 = no effect; 1 = pure only; 2 = several concs; 3 = strong at each; key to Δ DO: change in optical density measured at 600 nm; conditions: for Effects (0 < 1 < 2 < 3): molecules at 1, 0.5 and 0.1 mg/ml, triclosan at 0.1 mg/ml
Description: as §1, §2
(§5) Compounds of the invention were tested on 4 strains of E. coli, 3 strains of K. pneumoniae and 4 strains of S. aureus with the resistance profiles below.

[4] = system: S. aureus strains presenting high levels of resistance; assay: Bacterial growth on S. aureus strains presenting high levels of resistance; format: cell-based, Staphylococcus aureus; design: key to Effects (0 < 1 < 2 < 3): 0 = no effect; 1 = pure only; 2 = several concs; 3 = strong at each; key to Δ DO: change in optical density measured at 600 nm; conditions: for Effects (0 < 1 < 2 < 3): molecules at 1, 0.5 and 0.1 mg/ml, triclosan at 0.1 mg/ml
Description: as §1, §2, §5

[5] = system: KB cells (epidermoid carcinoma); assay: In vitro cytotoxicity, cell proliferation test (MTS) on KB cells; format: cell-based; conditions: Homo sapiens, KB cells, triplicate, 72 hours of exposure, with respect to DMSO control, read-out: percentage of inhibition of cell growth
Description: The human cell strain KB (epidermoid carcinoma) was obtained from the NCI (National Cancer Institute) and cultivated in the D-MEM medium added with 10% of foetal bovine serum (Invitrogen) in the presence of penicillin, streptomycin and fungizone in flasks of […] under CO2 at 5%. The cells were deposited on tissue culture microplates with 96 wells and a density of 650 cells/well in 200 μl of medium and treated 24 hours later with compounds of the invention dissolved in DMSO at concentrations going from 0.5 nM to 10 μM using a Biomek 3000 (Beckman-Coulter) automaton. The controls received the same volume of DMSO (1% of final volume). After 72 hours of exposure, the MTS reagent (Celltiter 96Aqueous One solution, Promega) was added and incubated for 3 hours at 37° C.: the absorbance was measured at 490 nm and the results of inhibition of the cell proliferation were calculated according to the ratio [(1−(OD490treated/OD490control))×100].
Results: Cytotoxicity at 10^−5 and 10^−6M on Triplicate KB Cells, Measured after 72 Hours of Exposure.
The percentage of inhibition of cell growth with respect to the cells receiving the same quantity of DMSO is outlined in the table below.

androgenic receptors = biological target: T1, androgenic receptors (Homo sapiens, UniProt P10275); assay: Affinity test for androgenic receptors, inhibition of bonding of radioactive marked testosterone; format: binding; conditions: 10^−5 M, greater than 50% considered significant, read-out: % of inhibition (average of the two measurements)
T1 sequence (P10275 1-920): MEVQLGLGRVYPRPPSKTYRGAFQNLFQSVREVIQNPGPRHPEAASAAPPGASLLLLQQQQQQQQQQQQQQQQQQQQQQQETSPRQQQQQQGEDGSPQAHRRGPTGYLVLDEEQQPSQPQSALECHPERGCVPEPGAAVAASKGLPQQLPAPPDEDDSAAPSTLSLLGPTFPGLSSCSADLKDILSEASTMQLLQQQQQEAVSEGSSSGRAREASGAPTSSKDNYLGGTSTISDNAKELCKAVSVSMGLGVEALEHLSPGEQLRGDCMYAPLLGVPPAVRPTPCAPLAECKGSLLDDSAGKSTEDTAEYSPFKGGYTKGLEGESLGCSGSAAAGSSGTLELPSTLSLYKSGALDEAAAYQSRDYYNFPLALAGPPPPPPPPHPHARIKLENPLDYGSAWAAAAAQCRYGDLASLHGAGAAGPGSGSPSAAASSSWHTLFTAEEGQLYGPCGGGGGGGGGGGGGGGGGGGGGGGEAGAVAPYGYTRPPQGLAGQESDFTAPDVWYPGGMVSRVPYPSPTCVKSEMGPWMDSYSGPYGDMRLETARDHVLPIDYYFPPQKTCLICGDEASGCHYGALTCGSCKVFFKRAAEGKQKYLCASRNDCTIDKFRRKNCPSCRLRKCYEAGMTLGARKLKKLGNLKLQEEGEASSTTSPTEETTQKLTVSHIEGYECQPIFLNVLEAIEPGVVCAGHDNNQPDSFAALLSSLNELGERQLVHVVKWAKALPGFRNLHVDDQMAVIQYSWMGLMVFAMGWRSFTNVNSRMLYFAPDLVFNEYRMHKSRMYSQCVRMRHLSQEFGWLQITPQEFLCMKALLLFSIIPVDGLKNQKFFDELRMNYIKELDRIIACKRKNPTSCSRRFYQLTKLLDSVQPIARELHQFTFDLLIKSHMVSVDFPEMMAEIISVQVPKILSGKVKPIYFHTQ

COc1cc(O)c(Br)c(Cl)c1F [sr7615]
Effect level [1]: 3 | Effect level, S. aureus (Staphylococcus aureus): 3 | Effect level, E. coli (Escherichia coli): 3 | Effect level, K. pneumoniae (Klebsiella pneumoniae): 2 | Effect level, S. maltophila [2]: 2 | Δ DO ([3]; E. coli Strain 1, 0.1 mg/ml): 0.047 | Δ DO ([3]; E. coli Strain 1, 0.5 mg/ml): 0.777 | Δ DO ([3]; E. coli Strain 1, 1 mg/ml): 0.896 | Effects (0 < 1 < 2 < 3) ([3]; E. coli Strain 1): 2 | Δ DO ([3]; E. coli Strain 2, 0.1 mg/ml): 0.080 | Δ DO ([3]; E. coli Strain 2, 0.5 mg/ml): 0.886 | Δ DO ([3]; E. coli Strain 2, 1 mg/ml): 1.082 | Effects (0 < 1 < 2 < 3) ([3]; E. coli Strain 2): 2 | Δ DO ([3]; E. coli Strain 3, 0.1 mg/ml): 0.029 | Δ DO ([3]; E. coli Strain 3, 0.5 mg/ml): 0.526 | Δ DO ([3]; E. coli Strain 3, 1 mg/ml): 0.882 | Effects (0 < 1 < 2 < 3) ([3]; E. coli Strain 3): 2 | Δ DO ([3]; E. coli Strain 4, 0.1 mg/ml): 0.253 | Δ DO ([3]; E. coli Strain 4, 0.5 mg/ml): 0.809 | Δ DO ([3]; E. coli Strain 4, 1 mg/ml): 0.945 | Effects (0 < 1 < 2 < 3) ([3]; E. coli Strain 4): 3 | Δ DO ([4]; S. aureus Strain 1, 0.1 mg/ml): 0.250 | Δ DO ([4]; S. aureus Strain 1, 0.5 mg/ml): 0.434 | Δ DO ([4]; S. aureus Strain 1, 1 mg/ml): 0.428 | Effects (0 < 1 < 2 < 3) ([4]; S. aureus Strain 1): 3 | Δ DO ([4]; S. aureus Strain 2, 0.1 mg/ml): 0.308 | Δ DO ([4]; S. aureus Strain 2, 0.5 mg/ml): 0.412 | Δ DO ([4]; S. aureus Strain 2, 1 mg/ml): 0.382 | Effects (0 < 1 < 2 < 3) ([4]; S. aureus Strain 2): 3 | Δ DO ([4]; S. aureus Strain 3, 0.1 mg/ml): 0.310 | Δ DO ([4]; S. aureus Strain 3, 0.5 mg/ml): 0.482 | Δ DO ([4]; S. aureus Strain 3, 1 mg/ml): 0.445 | Effects (0 < 1 < 2 < 3) ([4]; S. aureus Strain 3): 3 | Δ DO ([4]; S. aureus Strain 4, 0.1 mg/ml): 0.351 | Δ DO ([4]; S. aureus Strain 4, 0.5 mg/ml): 0.450 | Δ DO ([4]; S. aureus Strain 4, 1 mg/ml): 0.418 | Effects (0 < 1 < 2 < 3) ([4]; S. aureus Strain 4): 3 | inhibition at 10 µM ([5]; 10^−5 M): 0% | inhibition at 1 µM ([5]; 10^−6 M): 0% | inhibition at 10 µM (androgenic receptors): 3.1%
